Marks after values point to notes of the source that are not given here.
What was measured:
[1] = test system: 3CLpro protease; format: biochemical, SARS-CoV
[2] = test system: SARS-CoV-2; format: cell-based
[3] = test system: SARS-CoV-1; format: cell-based
[4] = test system: trypsin; experiment: Trypsin (surrogate for TMPRSS2) cleavage of Site S2' peptide (Peptide 2, Acetyl-SKPSKR-pNA) after incubation with MGO; format: biochemical; settings: 8 mM MGO, 400 μM peptide 2, 5 nM trypsin
[5] = test system: recombinant human furin; experiment: Furin cleavage of Site S1 peptide (Peptide 1, Acetyl-SPRRAR-pNA) after incubation with MGO; format: biochemical; settings: 8 mM MGO, 400 μM peptide 1, 5 nM furin

Row | SMILES | inhibition of 3CLpro protease activity (cleavage of pNA substrate) [1] | other results
1 | O=C(O)C(O)Cc1ccccc1 (stereo not drawn) [3-phenyllactic acid] | inhibit activity of 3CLpro protease | 
2 | CCO [EtOH, ethanol] |  | LRV (log10 reduction of virus compared to the virus control) [2]: 3.9 log10; Virus (CCID50/0.1 mL) [2]: <0.7**** CCID50/0.1 mL; LRV (log10 reduction of virus compared to the virus control) [3]: 2.8 log10; Virus (CCID50/0.1 mL) [3]: 1.5 ± 0.2 CCID50/0.1 mL
3 | CC(=O)C=O [MGO, methylglyoxal] |  | reduction in pNA liberated (activation of peptide 2 by trypsin) ([4]; incubation 4 h): 88%; reduction in pNA liberated (activation of peptide 2 by trypsin) ([4]; incubation time 0): 21%; reduction in pNA liberated (activation of peptide 1 by furin) ([5]; incubation 3 h): 97%; reduction in pNA liberated (activation of peptide 1 by furin) ([5]; incubation 4 h): 97%; reduction in pNA liberated (activation of peptide 1 by furin) ([5]; incubation time 0): 90%
4 | O=c1c(O)c(-c2ccccc2)oc2cc(O)cc(O)c12 [galangin] | inhibit activity of 3CLpro protease | 
5 | COc1ccc([C@@H]2CC(=O)c3c(O)cc(O[C@@H]4O[C@H](CO[C@@H]5O[C@@H](C)[C@H](O)[C@@H](O)[C@H]5O)[C@@H](O)[C@H](O)[C@H]4O)cc3O2)cc1O [hesperidin] | inhibit activity of 3CLpro protease | 
6 | O=c1c(O)c(-c2ccc(O)cc2)oc2cc(O)cc(O)c12 [kaempferol] | inhibit activity of 3CLpro protease | 
7 | O=c1cc(-c2ccc(O)c(O)c2)oc2cc(O)cc(O)c12 [luteolin] | inhibit activity of 3CLpro protease | 
8 | O=C(O)/C=C/c1ccc(O)cc1 [p-coumaric acid] | inhibit activity of 3CLpro protease | 
9 | O=C1c2c(O)cc(O)cc2O[C@H](c2ccccc2)[C@H]1O [pinobanksin] | inhibit activity of 3CLpro protease | 
10 | O=C1C[C@@H](c2ccccc2)Oc2cc(O)cc(O)c21 [pinocembrin] | inhibit activity of 3CLpro protease | 
11 | O=c1c(O)c(-c2ccc(O)c(O)c2)oc2cc(O)cc(O)c12 [quercetin] | inhibit activity of 3CLpro protease | 

Reference: patent US20230118955A1 (priority 2020, published 2023)
